Experimental data: patent US5187174A, “6'-deoxy-6'-halo-neplanocin A and its production” (Asahi Kasei Kogyo Kabushiki Kaisha, priority 1989, dated 1993)
Converted amounts (≈) assume the structure as drawn.

Legend:
L5178Y cells = experiment: Growth inhibition activity against L5178Y cells; type: cell-based; conditions: Mus musculus, 48 hours, 37° C.
Procedure: 1. Growth inhibition activity against L5178Y cells:
A solution of each test compound is prepared by dissolving or suspending the compound in RRMI 1640 medium containing 10% bovine serum by ultrasonication. A cell suspension of L5178Y cells, 1.1×10^4 cells/ml, each suspension having a volume of 1.8 ml, is added to each test tube. A solution (0.2 ml) of the test compound hereinabove is added thereto and the medium is tightly sealed and incubated at 37° C. for 48 hours. After incubation, the number of cells is measured using a Coulter counter and the growth ratio of the cells is determined.

[1] = Resistance to adenosine deaminase; type: in vitro ADME, calf; conditions: bovine, pH 7.2, 25° C., read-out: Remaining Amount (%); for remaining at 0.5 h, 500 µM: 30 min.
Procedure: A solution 0.5 mM of each test sample is prepared by dissolving the test sample in 0.05M Tris-HCl buffer (pH 7.2). Adenosine deaminase (calf intestine, 400 U/ml glycerin, Boehringer 102091) is diluted ten times with 0.05M Tris-HCl buffer (pH 7.2) to prepare an adenosine deaminase solution.
0.5 ml of each sample solution is mixed with 10 μl of adenosine deaminase solution. The mixtures are allowed to stand in a water bath at 25° C., and 4 μl samples thereof are pipetted off after 1, 10, 20 and 30 minutes. The remaining sample is measured by HPLC under the following conditions:
Column: Licrosorb RP-18-5
Elution solvent: Control; 15% methanol
Elution speed: 1.0 ml/min.

cells = conditions: in words; Ref. 1; cited from earlier work
adenosine deaminase = conditions: in words; thought to occur, Ref. 1; cited from earlier work

With `Nc1ncnc2c1ncn2C1C=C(CBr)C(O)C1O` (stereo not shown) [Compound (1) X = Br, 6'-deoxy-6'-bromoneplanocin A] the IC50 (L5178Y cells) was 0.2 µg/mL (≈ 0.613 µM), the remaining at 10 min, 500 µM [1] was 98% and the remaining at 20 min, 500 µM [1] was 97%. For the same molecule, the remaining at 0.5 h, 500 µM [1] was 97%.

With `Nc1ncnc2c1ncn2C1C=C(CCl)C(O)C1O` (stereo not shown) [Compound (1) X = Cl, 6'-deoxy-6'-chloroneplanocin A] the IC50 (L5178Y cells) was 0.3 µg/mL (≈ 1.06 µM), the remaining at 10 min, 500 µM [1] was 101% and the remaining at 20 min, 500 µM [1] was 99%. For the same molecule, the remaining at 0.5 h, 500 µM [1] was 102%.

For `Nc1ncnc2c1ncn2C1C=C(CF)C(O)C1O` (stereo not shown) [Compound (1) X = F, 6'-deoxy-6'-fluoroneplanocin A], the IC50 (L5178Y cells) was 1.1 µg/mL (≈ 4.15 µM), the remaining at 10 min, 500 µM [1] was 99% and the remaining at 20 min, 500 µM [1] was 98%. It also gave a remaining at 0.5 h, 500 µM [1] of 98%.

`Nc1ncnc2c1ncn2C1C=C(CI)C(O)C1O` (stereo not shown) [Compound (1) X = I, 6'-deoxy-6'-iodoneplanocin A] showed an IC50 (L5178Y cells) of 0.4 µg/mL (≈ 1.07 µM), a remaining at 10 min, 500 µM [1] of 97% and a remaining at 20 min, 500 µM [1] of 96%. It also gave a remaining at 0.5 h, 500 µM [1] of 96%.

With `Nc1ncnc2c1ncn2[C@@H]1C=C(CO)[C@@H](O)[C@H]1O` [Neplanocin A] the IC50 (L5178Y cells) was 0.2 µg/mL (≈ 0.76 µM), the remaining at 10 min, 500 µM [1] was 6% and the remaining at 20 min, 500 µM [1] was 0.4%. The remaining at 0.5 h, 500 µM [1] was 0%, the “cytotoxic activity in vitro” value (cells) was “has cytotoxic activity in vitro” and the “conversion by adenosine deaminase in vivo” value (adenosine deaminase) was “rapid conversion to an inert deamination-type compound (neplanocin D)”.
